# Experimental data as given in patent US20130204033A1, “ANTIPROLIFERATIVE COMPOUNDS, CONJUGATES THEREOF, METHODS THEREFOR, AND USES THEREOF” (Medarex, Inc., priority 2009, published 2013).
# pEC50: −log10 of the molar value. Like-named read-outs stand apart in the source and are kept apart here.
# Legend:
# Assay type in all cases: cell-based, human
# UO-31 = experiment: ATP luminescence proliferation assay, UO-31
# Description: (§1) This example generally describes the procedures used to assay the antiproliferative activity of compounds of this invention or their conjugates. Human tumor cell lines were obtained from the American Type Culture Collection (ATCC), P.O. Box 1549, Manassas, Va. 20108, USA, and cultured according to instruction from the ATCC. Cells were seeded at 1.0×10^3 or 1.0×10^4 cells/well in 96-well plates for 3 h for ATP assays or ^3H thymidine assays, respectively. 1:3 serial dilutions of free (unconjugated) compounds or their conjugates were added to the wells. Plates were allowed to incubate for 24 to 72 h. The ^3H thymidine plates were pulsed with 1.0 μCi of ^3H-thymidine per well for the last 24 hours of the total incubation period, harvested, and read on a Top Count Scintillation Counter (Packard Instruments, Meriden, Conn.). ATP levels in the ATP plates were measured using the […]-GLO® Luminescent Cell Viability kit following the manufacturer's manual and read on a GLOMAX® 20/20 luminometer (both from Promega, Madison, Wis., USA). The EC50 values—the concentration at which an agent inhibits or reduces cell proliferation by 50% —were determined using PRISM™ software, version 4.0 (GraphPad Software, La Jolla, Calif., USA).
# (§2) Using the ^3H thymidine or the ATP luminescence assay, or both, the activities of compounds of this invention were assayed against the following cancer cell lines: HCT-15 (colorectal cancer, multi-drug resistant (MDR)); Hep3B (liver cancer); LNCaP (prostate cancer, androgen receptor positive (AR^+)); MDA-MB-231 (breast cancer, estrogen receptor, progesterone receptor, and Her2 negative (triple negative)); A2058 (melanoma); U-87 MG (glioblastoma); NCI-H460 (NSCLC); A549 (NSCLC); HPAC (pancreatic cancer, primary); PC3 (prostate cancer, AR); BT474 (breast cancer, Her2 highly positive (Her2hi)); SKOV3 (ovarian cancer, Her2hi); 786-O (renal cancer); UO-31 (renal cancer, MDR); NCI-H740 (SCLC); DMS53 (SCLC); SK-BR3 (breast cancer, Her2hi); ZR-75 (breast cancer, estrogen receptor positive); OVCAR3 (ovarian cancer); HL-60 (APL); OVCAR8/Adr (ovarian cancer, MDR); CEM-Cl (ALL); Nomo-1 (AML); RPMI-8226 (MM)); Raji (lymphoma); SW-480 (colorectal cancer, metastatic); SW-620 (colorectal cancer); and H226 (lung cancer). (Not all compounds were assayed against all cell lines.)
# (§3) Table 3 provides the data for the ATP luminescence proliferation assays, with an incubation period of 48, 72, or 96 h, as noted.
# CEM-C1 = experiment: 3H thymidine proliferation assay, CEM-C1
# Description: as §1, §2
# (§4) Table 2 provides the data for proliferation assays using the ^3H thymidine method, with an incubation period of 72 h.
# Hep3B = experiment: 3H thymidine proliferation assay, Hep3B
# Description: as §1, §2, §4
# SKOV3 [1] = experiment: 3H thymidine proliferation assay, SKOV3
# Description: as §1, §2, §4
# ZR-75 = experiment: 3H thymidine proliferation assay, ZR-75
# Description: as §1, §2, §4
# SKOV3 [2] = experiment: ATP luminescence proliferation assay, SKOV3
# Description: as §1, §2, §3
# MDA-MB-231 = experiment: 3H thymidine proliferation assay, MDA-MB-231
# Description: as §1, §2, §4
# 786-O = experiment: ATP luminescence proliferation assay, 786-O
# Description: as §1, §2
# FIGS. 12a and 12b show illustrative plots for ATP luminescence proliferation assays for a second set of compounds of this invention, against HL-60 and 786-O cells, respectively, with an incubation period of 72 h. FIGS. 12c and 12d show the plots for ^3H thymidine proliferation assays for the same set of compounds, again against HL-60 and 786-O cells, respectively, with a 72 h incubation period. In each instance, doxorubicin was used as a comparative compound.
# as §3
# Nomo-1 = experiment: 3H thymidine proliferation assay, Nomo-1
# Description: as §1, §2, §4
# PC3 = experiment: ATP luminescence proliferation assay, PC3
# Description: as §1, §2, §3
# LNCaP = experiment: ATP luminescence proliferation assay, LNCaP
# Description: as §1, §2, §3
# A549 = experiment: ATP luminescence proliferation assay, A549
# Description: as §1, §2, §3
# [3] = Homo sapiens, UO-31, 48 h, read-out: EC50 UO-31 (48 h), ATP luminescence, UO-31, 48 h incubation
# [4] = Homo sapiens, CEM/C1, read-out: EC50, CEM-C1, 3H thymidine method, 72 h incubation
# [5] = Homo sapiens, Hep3B, read-out: EC50, Hep3B, 3H thymidine method, 72 h incubation
# [6] = Homo sapiens, SK-OV-3, read-out: EC50, SKOV3, 3H thymidine method, 72 h incubation
# [7] = Homo sapiens, ZR75, read-out: EC50, ZR-75, 3H thymidine method, 72 h incubation
# [8] = Homo sapiens, SK-OV-3, 72 h, read-out: EC50 SKOV3 (72 h), ATP luminescence, SKOV3, 72 h incubation
# [9] = Homo sapiens, MDA-MB-231, read-out: EC50, MDA-MB-231, 3H thymidine method, 72 h incubation
# [10] = Homo sapiens, 786-0, 72 h, read-out: EC50 786-O (72 h), ATP luminescence, 786-O, 72 h incubation
# [11] = Homo sapiens, NOMO-1, read-out: EC50, Nomo-1, 3H thymidine method, 72 h incubation
# [12] = Homo sapiens, PC-3, 48 h, read-out: EC50 PC3 (48 h), ATP luminescence, PC3, 48 h incubation
# [13] = ATP luminescence, UO-31, 48 h incubation, read-out: EC50 UO-31 (48 h)
# [14] = 3H thymidine method, 72 h incubation, read-out: EC50, CEM-C1
# [15] = 3H thymidine method, 72 h incubation, read-out: EC50, Hep3B
# [16] = 3H thymidine method, 72 h incubation, read-out: EC50, SKOV3
# [17] = 3H thymidine method, 72 h incubation, read-out: EC50, ZR-75
# [18] = ATP luminescence, SKOV3, 72 h incubation, read-out: EC50 SKOV3 (72 h)
# [19] = ATP luminescence, 786-O, 72 h incubation, read-out: EC50 786-O (72 h)
# [20] = 3H thymidine method, 72 h incubation, read-out: EC50, Nomo-1
# [21] = ATP luminescence, PC3, 48 h incubation, read-out: EC50 PC3 (48 h)
# [22] = ATP luminescence, SKOV3, 48 h incubation, read-out: EC50 SKOV3 (48 h)
# [23] = 3H thymidine method, 72 h incubation, read-out: EC50, MDA-MB-231
# [24] = Homo sapiens, SK-OV-3, 48 h, read-out: EC50 SKOV3 (48 h), ATP luminescence, SKOV3, 48 h incubation
Structure (SMILES),pEC50 (UO-31; [3]),pEC50 (CEM-C1; [4]),pEC50 (Hep3B; [5]),pEC50 (SKOV3 [1]; [6]),pEC50 (ZR-75; [7]),pEC50 (MDA-MB-231; [9]),pEC50 (786-O; [10]),pEC50 (Nomo-1; [11]),pEC50 (PC3; [12]),pEC50 (UO-31; [13]),pEC50 (CEM-C1; [14]),pEC50 (Hep3B; [15]),pEC50 (SKOV3 [1]; [16]),pEC50 (ZR-75; [17]),pEC50 (SKOV3 [2]; [18]),pEC50 (786-O; [19]),pEC50 (Nomo-1; [20]),pEC50 (PC3; [21]),pEC50 (MDA-MB-231; [23]),further results
CC[C@H](C)[C@H](NC(=O)[C@H]1CCCCN1C)C(=O)N(C)[C@H](C[C@@H](OC)c1nc(C(=O)N[C@@H](Cc2ccccc2)C(=O)N[C@@H](C)C(=O)OC)cs1)C(C)C [Compound 24],7.89,7.89,7.49,7.17,8.44,7.48,7.44,8.96,7.89,–,–,–,–,–,–,–,–,–,–,pEC50 (SKOV3 [2]; [8]): 7.89
CCC[C@H](NC(=O)[C@H](Cc1ccccc1)NC(=O)c1csc([C@@H](C[C@H](C(C)C)N(C)C(=O)[C@@H](NC(=O)[C@H]2CCCCN2C)[C@@H](C)CC)OC)n1)C(=O)OC [Compound 19],–,–,–,–,–,–,–,–,–,< 7.00,7.66,7.28,< 7.00,7.47,7.82,7.40,8.89,~7.48,–,–
CC[C@H](C)[C@H](NC(=O)[C@H]1CCCCN1C)C(=O)N(C)[C@H](C[C@@H](OC(C)=O)c1nc(C(=O)N[C@@H](Cc2ccc(N)cc2)C(=O)O)cs1)C(C)C [Compound 56],–,–,–,–,–,–,–,–,–,–,< 7.00,< 7.00,< 7.00,< 7.00,–,< 7.00,< 7.00,< 7.00,< 7.00,pEC50 (SKOV3 [2]; [22]): < 7.00
CC[C@H](C)[C@H](NC(=O)[C@H]1CCCCN1C)C(=O)N(COC(=O)CC(C)C)[C@H](C[C@@H](O)c1nc(C(=O)N[C@@H](Cc2ccccc2)C(=O)OC)cs1)C(C)C [Compound 28],–,–,–,–,–,–,–,–,–,8.24,8.00,7.62,8.00,8.37,7.96,7.54,9.70,8.24,< 7.00,–
CC[C@H](C)[C@H](NC(=O)[C@H]1CCCCN1C)C(=O)N(C)[C@H](C[C@@H](OC)c1nc(C(=O)N[C@@H](Cc2ccc(N)cc2)CC(C)C(=O)O)cs1)C(C)C (some centres unmarked) [Compound 51],–,–,–,–,–,–,–,–,–,< 7.00,8.70,8.38,8.36,8.89,8.00,7.72,8.46,7.80,8.06,–
CC[C@H](C)[C@H](NC(=O)[C@H]1CCCCN1C)C(=O)N(C)[C@H](C[C@@H](OC)c1nc(C(=O)N[C@H](CCC(=O)OC)Cc2ccccc2)cs1)C(C)C [Compound 26],6.62,7.66,7.74,8.34,< 6.52,7.82,6.90,9.44,< 5.52,–,–,–,–,–,–,–,–,–,–,"pEC50 (LNCaP; Homo sapiens, 72 h, read-out: EC50 LNCaP (72 h), ATP luminescence, LNCaP, 72 h incubation): 6.39; pEC50 (SKOV3 [2]; [8]): 7.42"
CC[C@H](C)[C@H](NC(=O)[C@H]1CCCCN1C)C(=O)N(C)[C@H](C[C@@H](OC)c1nc(C(=O)N[C@H](CC(=O)OC)Cc2ccccc2)cs1)C(C)C [Compound 25],6.12,6.65,6.52,6.74,< 5.52,6.63,6.51,6.94,6.81,–,–,–,–,–,–,–,–,–,–,"pEC50 (A549; Homo sapiens, A549, 48 h, read-out: EC50 A549 (48 h), ATP luminescence, A549, 48 h incubation): 6.95; pEC50 (SKOV3 [2]; [8]): 6.96"
CC[C@H](C)[C@H](NC(=O)[C@H]1CCCCN1C)C(=O)N(COC(=O)CC(C)C)[C@H](C[C@@H](OC(C)=O)c1nc(C(=O)N[C@@H](Cc2ccccc2)C(=O)OC)cs1)C(C)C [Compound 29],–,–,–,–,–,–,–,–,–,8.57,10.72,10.39,10.54,8.42,8.89,8.55,11.12,8.47,9.89,"pEC50 (A549; ATP luminescence, A549, 48 h incubation, read-out: EC50 A549 (48 h)): 8.41"
CC[C@H](C)[C@H](NC(=O)[C@H]1CCCCN1C)C(=O)N(C)[C@H](C[C@@H](OC)c1nc(C(=O)N[C@@H](Cc2ccccc2)C(=O)OC)cs1)C(C)C [Compound 16],–,–,–,–,–,–,–,–,–,–,7.96,< 7.00,7.36,< 7.00,–,7.44,8.74,< 7.00,< 7.00,pEC50 (SKOV3 [2]; [22]): 7.74
CC[C@H](C)[C@H](NC(=O)[C@H]1CCCCN1C)C(=O)N(C)[C@H](C[C@@H](OC)c1nc(C(=O)NC(Cc2ccccc2)C[C@H](C)C(=O)O)cs1)C(C)C (some centres unmarked) [Compound 15],–,9.03,8.80,8.59,–,8.89,8.03,8.64,< 7.00,–,–,–,–,–,–,–,–,–,–,pEC50 (SKOV3 [2]; [24]): 8.38
CCCC(NC(=O)c1csc([C@@H](C[C@H](C(C)C)N(C)C(=O)[C@@H](NC(=O)[C@H]2CCCCN2C)[C@@H](C)CC)OC)n1)C(=O)OC (some centres unmarked) [Compound 17],< 7.00,7.37,< 7.00,7.04,< 7.00,7.08,7.14,8.17,< 7.00,–,–,–,–,–,–,–,–,–,–,pEC50 (SKOV3 [2]; [24]): 7.24
CC[C@H](C)[C@H](NC(=O)[C@H]1CCCCN1C)C(=O)N(COC)[C@H](C[C@@H](OC)c1nc(C(=O)N[C@@H](Cc2ccccc2)C(=O)OC)cs1)C(C)C [Compound 29c],–,–,–,–,–,–,–,–,–,7.59,7.35,8.52,8.72,7.36,7.77,7.47,9.37,7.18,8.32,"pEC50 (LNCaP; ATP luminescence, 72 h incubation, read-out: EC50 LNCaP (72 h)): 6.59"
